Data set [1] deals with Xenopus oocytes. The experiment in a line: Xenopus oocyte bioassay: progesterone-induced oocyte maturation (GVBD). The data set is classed as cell-based. The protocol:
(§1) Oocyte maturation was monitored at regular intervals using a high content image capture procedure. Immature stage VI Xenopus oocytes were transferred to wells of a flat bottom 96-well plate containing about 178 μL of L15 culture media. The oocytes were transferred using wide mouth 200 μL pipette tips with minimal transfer of culture medium (e.g., about 20 μL). Generally, the oocytes oriented with the dark-pigmented animal hemisphere facing up due to the higher density of the yolk-containing vegetal hemisphere. Incorrectly orientated oocytes were gently manipulated using a drawn-out capillary tube or other tool to rotate them into the correct orientation. […] The oocytes were incubated for about 16 hours (i.e., overnight) at 16-25° C. in the presence of 1% DMSO (i.e., 2 μL of 100% DMSO).
Oocyte maturation was stimulated by the addition of progesterone. For this, 2 μL of 1000× stock solution (2 mg/mL in ethanol) was added to the appropriate wells to yield a final concentration of 2 μg/mL (although other concentrations of progesterone may be employed). The 96-well plate was imaged from the top-down (see FIG. 4E) using a 36-megapixel Nikon D800 SLR camera with an AF Micro Nikkor 60 mm, f/2.8 lens, mounted on a dedicated copy stand (with adjustable flanking light sources).
The plate was imaged prior to and after addition of progesterone (i.e., images were taken at regular intervals over a period of 7 hours). Oocyte maturation was phenotypically assessed by the appearance of a white spot at the animal pole of the oocyte. The white spot is due to migration of the germinal vesicle towards the animal pole prior to germinal vesicle breakdown (GVBD). The high resolution images were digitally zoomed after capture to analyze the maturation status of oocytes in individual wells of the plate (FIGS. 4A-D).
The Xenopus oocyte bioassay was used to screen a collection of about 2000 low molecular weight small molecules. Oocytes were distributed among multi-well plates essentially as described above in Example 1. The test compounds were dissolved in DMSO to make 100× stock solutions. The test compounds were added to the appropriate wells at a final concentration of 100 μM (and 1% DMSO). No drug control oocytes were exposed to 1% DMSO only. Sixteen hours later, progesterone was added to the appropriate wells, with the first and last wells of each plate containing the no drug control oocytes. The rate of maturation in the first and last wells served as an intra-assay control for time taken for progesterone addition across each multiwell plate. The plates were imaged essentially as described above in Example 1.

Data set [2] has as its system Xenopus oocytes. Nature of the data set: Xenopus oocyte bioassay: oocyte maturation (GVBD) in the absence of progesterone. Format: cell-based. Conditions: screen at 100 μM. As to the method: as §1
Oocyte maturation was stimulated by the addition of progesterone. For this, 2 μL of 1000× stock solution (2 mg/mL in ethanol) was added to the appropriate wells to yield a final concentration of 2 μg/mL (although other concentrations of progesterone may be employed). […]
The plate was imaged prior to and after addition of progesterone (i.e., images were taken at regular intervals over a period of 7 hours). Oocyte maturation was phenotypically assessed by the appearance of a white spot at the animal pole of the oocyte. […]

For a further data set, the system named is MAP kinase (MAPK). The experiment in a line: Western blot of treated oocytes, MAP kinase phosphorylation. The data set is classed as cell-based, Xenopus. From the text: (§2) To begin to decipher the mechanism of action of the compounds that modified oocyte maturation, their effects on regulators of the meiotic cell cycle were examined. In particular, Musashi (Msi1) phosphorylation, Msi2 phosphorylation, MAP kinase phosphorylation, and Cdc2 (also called CDK1) dephosphorylation were examined in Xenopus oocytes treated with a modifying compound or only DMSO (i.e., control). The oocytes were processed for Western blot analysis using standard procedures, and the blots were probed with antibodies specific for phosphorylated or non-phosphorylated forms of the proteins of interest.
(In general: A western blot detects proteins with antibodies after separation by electrophoresis.)

The subject of a further data set is Cdc2 (also called CDK1). Nature of the data set: Western blot of treated oocytes, Cdc2 (CDK1) dephosphorylation / MPF activation. Conditions: for dephosphorylation of cdc2 (CDK1), activation of MPF: activators, no progesterone, PNR-5-46 5 μM, JVM-9 100 μM (FIG. 8A). Format: cell-based, Xenopus.
Source text: as §2

Data set [3] concerns Xenopus oocytes. Nature of the data set: Xenopus oocyte bioassay: oocyte maturation (GVBD) in the absence of progesterone. Format: cell-based. Conditions: for activation of GVBD: no progesterone (FIG. 6).
Another data set deals with MCF-7 cells. The experiment in a line: Mammosphere formation (breast cancer stem cell self-renewal), MCF-7. The data set is classed as cell-based. Conditions: compound first 3 days, scored day 14 (P2), 50, 5 and 0.5 μM. The source says: (§3) Mammosphere culture growth presents a useful indicator of the presence of breast cancer cells with stem cell-like properties. Breast cancer cell lines grown as mammospheres (under non-adherent plating conditions) recapitulate the three-dimensional organization of tumors. Importantly, assessment of stem cell self-renewal capacity can be achieved through dispersion of mammospheres to single cells and subsequent limited dilution replating. […] At day 7, mammospheres were collected, dispersed to single cells and replated at limiting dilution (P1). Spheroids were scored at day 14 (P2). Mammosphere forming units (MFUs) are defined as spheroid bodies >100 μm (MCF-7 cells) or >65 μm (MDA MB231 cells) diameter after 7 (P1) or 14 (P2) days growth in non-adherent culture.

A further data set deals with MDA MB231 cells. The experiment in a line: Mammosphere formation (breast cancer stem cell self-renewal), MDA MB231. The data set is classed as cell-based. Particulars: compound first 3 days, scored day 14 (P2), 50, 5 and 0.5 μM.
Source text: as §3

Another data set relates to MCF-7 or MDA MB231 cells. Nature of the data set: General cell viability of breast cancer cells. The data set is classed as cell-based. Particulars: 0.5 μM dose.
The next data set relates to SHSY5Y. Nature of the data set: Neurosphere formation, neuroblastoma cell line SHSY5Y. Format: cell-based. Conditions: lowest dose tested 0.5 μM (FIG. 11A). The protocol: (§4) The activity of the three test compounds to inhibit neurosphere formation was also tested in a neuroblastoma cell line SHSY5Y and a glioblastomoa cell line U87. All three compounds attenuated neurosphere formation in both cell lines, to varying degrees of efficacy (FIGS. 11A,B). […] None of the compounds affected cell viability.

The subject of a further data set is U87. Nature of the data set: Neurosphere formation, glioblastoma cell line U87. The data set is classed as cell-based. Particulars: lowest dose tested 0.5 μM (FIG. 11B). As to the method:
as §4

The subject of another data set is Musashi2 (Msi2). The experiment in a line: Western blot of treated oocytes, Msi2 phosphorylation. The data set is classed as cell-based, Xenopus. Conditions: FIG. 8B.
Source text: as §2

A further data set has as its system Musashi1 (Msi1). Nature of the data set: Western blot of treated oocytes, Msi1 phosphorylation. Format: cell-based, Xenopus.
Source text: as §2

Where [4] appears, read: activators, no progesterone, PNR-5-46 5 μM, JVM-9 100 μM (FIG. 8A).
[5] abbreviates: in response to progesterone (FIG. 9).

“Also recorded” adds a separate entry of the source.

Regarding `CC(=O)[C@H]1CC[C@H]2[C@@H]3CCC4=CC(=O)CC[C@]4(C)[C@H]3CC[C@]12C` [progesterone, reference compound], in the data set with Xenopus oocytes [1] (by about 7 hours, progesterone-treated oocytes (FIG. 5)), the “percent of oocytes that started GVBD” value was “About 35%”.

As for `C/C1=C\CC[C@@]2(C)O[C@H]2[C@H]2OC(=O)[C@@H](CNc3nc4ccccc4[nH]3)[C@@H]2CC1` [JVM-9], in the data set with Xenopus oocytes [2], the “progesterone-independent oocyte maturation (activator)” value is “activation of maturation; also recorded: activators; also recorded: activated spontaneous oocyte maturation”. Moreover, the “phosphorylation of MAP kinase” value with MAP kinase (MAPK) (setting [4]) is “promoted phosphorylation”. Further, in the data set with Cdc2 (also called CDK1), the “dephosphorylation of cdc2 (CDK1), activation of MPF” value is on record as “dephosphorylation of cdc2”. The “activation of GVBD” value is “less effective” in the data set with Xenopus oocytes [3] (10 μM); “activated GVBD” in the data set with Xenopus oocytes [3] (100 and 50 μM).

Consider `C/C1=C\CC[C@@]2(C)O[C@H]2[C@H]2OC(=O)[C@@H](CNCCCn3ccnc3)[C@@H]2CC1` [JVM-20], for which the “effect on progesterone-stimulated maturation” value is “accelerate” with Xenopus oocytes [1] (from 1 to 50 μM) and “inhibit” in the data set with Xenopus oocytes [1] (high dose (100 μM)). For the same molecule, the “mammosphere formation relative to DMSO-treated control cells” value in the data set on MCF-7 cells and with MDA MB231 cells was “effectively inhibited” each time. The general cell viability result with MCF-7 or MDA MB231 cells was “no significant effect”. The “neurosphere formation / stem cell self-renewal” value with SHSY5Y and in the data set on U87 was “particularly effective” throughout.

Regarding `C/C1=C\CC[C@@]2(C)O[C@H]2[C@H]2OC(=O)/C(=C\c3cccc(Br)c3)[C@@H]2CC1` [PNR-5-46], the “progesterone-independent oocyte maturation (activator)” value in the data set on Xenopus oocytes [2] is on record as “hormone-independent activation of maturation; also recorded: activators; also recorded: induced oocyte maturation”. Further, the “phosphorylation of MAP kinase” value with MAP kinase (MAPK) (setting [4]) is reported as “promoted phosphorylation”. Further, the “dephosphorylation of cdc2 (CDK1), activation of MPF” value in the data set on Cdc2 (also called CDK1) is “dephosphorylation of cdc2”. Besides, the “activation (phosphorylation) of Msi2” value in the data set with Musashi2 (Msi2) is reported as “triggered activation”. Moreover, the “activation (phosphorylation) of Msi1” value in the data set on Musashi1 (Msi1) (not shown) was “triggered activation”. Also, the “mammosphere formation relative to DMSO-treated control cells” value in the data set with MCF-7 cells and with MDA MB231 cells was “effectively inhibited” in each case. The general cell viability entry in the data set on MCF-7 or MDA MB231 cells was “no significant effect”. Besides, the “neurosphere formation / stem cell self-renewal” value in the data set with SHSY5Y and in the data set with U87 was “not” throughout. Further, the EC50 with Xenopus oocytes [3] (Xenopus laevis, Oocyte, absence of progesterone, read-out: EC50 (activation of oocyte maturation)) was found to be 7 µM. In addition, in the data set on Xenopus oocytes [3] (by about 4 hours, no progesterone, 100 μM PNR-5-46 (FIG. 5)), the “percent of oocytes that initiated GVBD” value is “About 35%”.

As for `C/C1=C\CC[C@@]2(C)O[C@H]2[C@H]2OC(=O)/C(=C\c3ccc(N)cc3)[C@@H]2CC1` [PNR-5-41], the EC50 with Xenopus oocytes [1] (Xenopus laevis, Oocyte, progesterone-induced, p<0.05, n=5 vs DMSO only, read-out: EC50 (inhibition of progesterone-induced maturation)) worked out at 5 µM. Besides, the “effect on rate of progesterone-induced oocyte maturation (inhibitor)” value in the data set on Xenopus oocytes [1] (progesterone-induced) is reported as “attenuation of progesterone-induced GVBD; also recorded: inhibitor; also recorded: inhibited progesterone-induced maturation in a dose-dependent manner”. Besides, in the data set on MAP kinase (MAPK) (setting [5]), the “phosphorylation of MAP kinase” value is reported as “did not affect phosphorylation”. The “de-phosphorylation and activation of cyclin B/CDK1 (MPF)” value in the data set on Cdc2 (also called CDK1) (setting [5]) was “blocked”. Besides, in the data set with Musashi1 (Msi1) (setting [5]), the “phosphorylation of Msi1” value is “did not affect phosphorylation”. Besides, the “mammosphere formation relative to DMSO-treated control cells” value with MCF-7 cells and in the data set with MDA MB231 cells was “did not” in each case. Besides, the “neurosphere formation / stem cell self-renewal” value with SHSY5Y and in the data set on U87 was “Significant inhibition” in each case.

The record behind these values is patent US20160077084A1, “AMPHIBIAN OOCYTE OR EMBRYO BIOASSAY” (THE BOARD OF TRUSTEES OF THE UNIVERSITY OF ARKANSAS, priority 2013, published 2016).
